In patent US7160916B2, “Method of increasing bone density or treating osteoporosis” (Yung Shin Pharmaceutical Ind. Co., Ltd., priority 2003, dated 2007):
Marks after values point to notes of the source that are not given here.

What was measured:
[1] = tested on: ovariectomized adult female rats; assay: Ovariectomy-induced bone loss: bone size, BMD, BMC, bone volume; assay type: in vivo, rat
Text: Bone histomorphometry: After formalin fixation of tibia was completed, the tibiae were then decalcified in 0.5 N hydrochloric acid, dehydrated in an ascending series of ethanol solution and acetone, and embedded in paraffin. Serial sections (5 μm) were cut longitudinally and stained with Mayer's hematoxylin-eosin solution (Yang et al. (1993) Calcif Tissue Int 52:57–61). Images of the growth plate and proximal tibia were photographed using a photoMicroGraphic Digitize integrate System (MGDS; Total-Integra Technology Co., Ltd., Taipei, Taiwan). Bone volume measurements were performed on the whole secondary spongiosa, which is located under the primary spongiosa and characterized by a network of larger trabeculae. Bone volumes were calculated using an image analysis software. All measurements were done in a single-blind fashion. Ovariectomy and cut of sciatic nerve: Ovariectomy and cut of sciatic nerve were performed in adult female and male rats (3 month-old), respectively. After surgery, the rats were injected with Indazole 1 (i.p., 1 mg/Kg) or a vehicle daily for 4 weeks. On the day following the last injection, the rats were sacrificed and their tibia and femur were removed. Tibia and femur Preparation: At the end of the program, the rats were sacrificed by decapitation. The tibiae were removed, cleaned of soft tissue, and the length of the tibia was measured with a precision caliper (±0.05 mm) as described by Weinreb et al. (1991) J Bone Miner Res 6:725–731. The tibiae were fixed in 10% formaldehyde for 48 h at 4° C. for bone histomorphometry analysis. Some of the tibia and femur were also removed and kept at −20° C. for bone mineral analysis. Analysis of bone mineral density (BMD) and content (BMC): BMD and BMC of the tibia and femur were measured with a dual-energy X-ray absorptiometer (DEXA, XR-26; Norland, Fort Atkinson, Wis.). The mode adapted to the measurements of small subjects was adopted. A coefficient of variation of 0.7% was calculated from daily measurements of BMD on a lumbar phantom for more than 1 year (Yang et al. (1998) Calcif Tissue Int 63:86–90). The tibia and femur were thawed to room temperature before bone mineral analysis. The whole tibiae and femur were scanned and BMD and BMC were measured by absorptiometer. Prevention of bone loss: Ovariectomy (OVX) was performed in adult female rats (n=28). After ovariectomy, one group of the ovariectomized rats (n=16) were injected with Indazole 1 (i.p., 1 mg/kg/day), and the other group (n=12) were not. 15 un-ovarietctomized adult female rats were used as sham-operated controls and were not injected with Indazole 1. […] A 60% reduction in bone volume was observed 4 weeks after ovariectomy. […] The bone volume reached 76% of sham-operated controls.

Primary osteoblast cells = assay: Assay of alkaline phosphatase activity in cultured osteoblasts; assay type: cell-based, rat
Procedure: Primary osteoblast cultures: Primary osteoblast cells were prepared from calvaria of 18-day-old fetal Sprague-Dawley (SD) rats according to the following method: Pregnant rats were put in anesthesia using intraperitoneal injection of trichloroacetaldehyde (200 mg/kg). The calvaria of the fetal rats were then dissected with aseptic technique. Soft tissues were removed under a dissecting microscope. The calvaria were divided into small pieces and then treated with 0.1% collagenase (Sigma Chemical, St. Louis, Mo.) solution for 10 minutes at 37° C. The cells released from the calvariae by two 20-minute sequential collagenase digestions were pooled and filtered through 70 μm nylon filters (Falcon, BD BioSciences, San Jose, Calif.). The cells were then grown on plastic cell culture dishes in 95:5 air-CO2 with Dulbecco's modified Eagle's medium (DMEM) (Gibco, Grand Island, N.Y.) which was supplemented with 20 mM HEPES and 10% heat-inactivated FCS, 2 mM-glutamine, penicillin (100 U/ml) and streptomycin (100 μg/ml) (pH adjusted to 7.6). The cell medium was changed twice a week. Osteoblasts were confirmed by morphology and expression of alkaline phosphatase (ALP). To examine the maturation of osteoblasts, cells were cultured for up to 14 days in a growth medium containing ascorbic acid (50 μg/ml) (Sigma Chemical, St. Louis, Mo.) and β-glycerophosphate (10 mM) (Sigma Chemical, St. Louis, Mo.) and the medium was changed every 3 day. Assay of alkalinephosphatase activity: Cells cultured in 6-well plates in the presence or absence of Indazole 1 were harvested in 1 ml of 0.2% Nonidet P-40 and cell suspension was disrupted by sonication. After centrifugation at 1500 g for 5 min, ALP activity in the supernatant was measured by the method of Lowry et al (1954) J Biol Chem 207:19–37.

Day-3 osteoblasts = assay: Fibronectin fibrillogenesis by immunocytochemistry; assay type: cell-based, rat; details: 10 μM for 24 hr
Procedure: Fibronectin (Fn) plays an important role in the regulation of adhesion, migration, and maturation of osteoblasts. Fn fibrillogenesis is involved in the process of bone mineralization. The effect of Indazole 1 on Fn fibrillogenesis in cultured osteoblasts was examined. The immobilized form of fibrillogenesis from the endogenously released Fn by monolayer Day 3˜5 osteoblasts was studied using immunocytochemistry. Incubation of Day-3 osteoblasts with Indazole 1 (10 μM) for 24 hr increased extracellular Fn assembly. Flow cytometry was used to analyze the effect of Indazole 1 on the surface expression of α5 and β1 integrins. […] On the other hand, the collagen synthesis was increased by Indazole 1 only at a higher concentration of 10 μM.

cultured osteoblasts = assay: Collagen synthesis (4-hydroxyproline content); assay type: cell-based, rat; details: only at a higher concentration of 10 μM
Procedure: von Kossa staining: Osteoblasts were cultured in DMEM containing 50 μg/ml vitamin C and 10 mM β-glycerophosphate for 2 weeks and the medium was changed every 3 days. To examine nodule formation, the cells were fixed in 4% paraformaldehyde for 10 min, rinsed with water, stained with 1% silver nitrate, placed under a UV lamp for 30 min and rinsed with water before treating with 5% sodium thiosulfate for 2 min. The cells were then washed twice with water and counterstained with 1% Safranin-O to visualize the matrix. The number of nodules formed per well was counted under a light microscope. Collagen synthesis was determined by measuring the 4-hydroxyproline content in cultured osteoblasts. Cells cultured in DMEM containing 50 μg/ml vitamin C and 10 mM β-glycerophosphate for 2 weeks were hydrolyzed in 6N HCl for 16 h at 116° C. After lyophilizing and reconstituting a lysate in distilled water, the amount of 4-hydroxyproline was determined by spectrophotometry at 550 nm as described by Berg (1982) Meth Enzymol. 82: 372–398.

[2] = OVX rats, 1 mg/kg daily for 4 weeks
[3] = OVX rats, i.p. 1 mg/kg daily for 1 month, mean ± S.E.

OCc1ccc(-c2nn(Cc3ccccc3)c3ccccc23)o1 [Indazole 1, 1-benzyl-3-(5′-hydroxymethyl-2′-furyl)-indazole]
bone volume relative to sham-operated controls [1, 2]: 76 % of sham-operated controls | loss of trabecular bone of tibia secondary spongiosa [1, 2]: reduced loss of trabecular bone | Femur BMC [1, 3]: 0.281 ± 0.001^b | Femur BMD [1, 3]: 0.112 ± 0.002^b | Femur length [1, 3]: 3.55 ± 0.01 cm | Femur weight [1, 3]: 0.87 ± 0.01 g | Tibia BMC [1, 3]: 0.173 ± 0.011^b | Tibia BMD [1, 3]: 0.097 ± 0.002^b | Tibia length [1, 3]: 4.05 ± 0.03 cm | Tibia weight [1, 3]: 0.67 ± 0.01 g | ovariectomy-induced loss of BMD and BMC in both tibia and femur ([1]; daily injection, i.p. 1 mg/kg/day): provided protection | concentration dependence of the increase of ALP activity (Primary osteoblast cells): concentration-dependent | ALP activity (ALP staining) (Primary osteoblast cells; 10 μM for 2 weeks): significantly increased | extracellular Fn assembly (Day-3 osteoblasts): increased | collagen synthesis (cultured osteoblasts): increased
